One experiment concerns the target Human ATX (Homo sapiens (Human), UniProt Q13822). The experiment can be described thus: Assay A: Biochemical ATX Assay. The following applies: 5 nM recombinant ATX, 18:1 LPC substrate, 2 h at room temperature, formation of 18:1 LPA by RapidFire MS.
Description: 5 nM recombinant ATX (Cayman Chemicals) was supplemented to 50 mM Tris buffer (pH 8.0) containing 3 mM KCl, 1 mM CaCl2, 1 mM MgCl2 0.14 mM NaCl, and 0.1% bovine serum albumin. Test compounds were dissolved in DMSO and tested in the range of 0.1 nM to 10 μM. The enzymatic reaction (22.5 μL) was started by addition of 2.5 μL 10 μM 18:1 LPC (Avanti Lipids, Alabaster, AL, USA). After 2-h incubation at room temperature, the reaction was stopped by addition of 20 μL water containing 500 nM 20:4 LPA as internal standard and 100 μL 1-butanol for extracting LPA. Subsequently, the plates were centrifuged at 4000 rpm, 4° C., for 2 min. The resultant upper butanol phase was directly used for injection at a RapidFire system (Agilent).
The RapidFire autosampler was coupled to a binary pump (Agilent 1290) and a Triple Quad 6500 (ABSciex, Toronto, Canada). […] 1 The MS was operated in negative mode with a source temperature of 550° C., curtain gas=35, gas 1=65, and gas 2=80. The following transitions and MS parameters (DP: declustering potential and CE: collision energy) for the respective LPAs were determined: • 18:1 LPA at 435.2/152.8, DP=−40, CE=−28 and 20:4 LPA at 457.2/152.8, DP=−100, CE=−27).
The formation of 18:1 LPA was monitored and evaluated as ratio to 20:4 LPA.
`CC(=O)N1CCC2(CC1)CN(c1ccc(CNc3ccc(OCc4ccc(C(F)F)nc4)nn3)nc1)C2` [Example 2.16]: the IC50 came to 10.4 nM.

Consider `CC(=O)N1CCN(c2ccc(CNc3ccc(OCc4ccc(C(F)F)nc4)nn3)cc2)CC1(C)C` [Example 1.7], for which the IC50 was 1.6 nM.

For `CC(=O)N1CCN(c2ccc(CNc3ccc(OCc4ccc(C(F)(F)F)nc4)nn3)cn2)CC1` [Example 2.5], the IC50 turned out to be 2.5 nM.

With `CC(=O)N1CCN(c2ccc(CNc3ccc(OCc4ccc(C(F)F)nc4)nn3)cn2)CC1` [Example 2.3], the IC50 amounted to 2.2 nM.

Consider `CC(=O)N1CCN(c2ccc(CNc3ccc(OCc4ccc(C(F)(F)F)nc4)nn3)cc2)CC1` [Example 2.2], for which the half-inhibitory concentration (IC50) worked out at 3 nM.

Regarding `CC(=O)N1CCN(c2ccc(CNc3ccc(OCc4ccc(C(F)F)nc4)nn3)nc2)CC1` [Example 2.4], the 50% inhibitory concentration (IC50) was determined as 1.9 nM.

Turning to `CN1CC2(CC1=O)CN(c1ccc(CNc3ccc(OCc4ccc(C(F)F)nc4)nn3)cc1)C2` [Example 1.5], the half-inhibitory concentration (IC50) turned out to be 3.9 nM.

For the molecule `CC(=O)N1CCC2(CC1)CN(c1ccc(CNc3ccc(OCc4ccc(C(F)(F)F)nc4)nn3)cn1)C2` [Example 2.17], the half-inhibitory concentration (IC50) came to 5.2 nM.

For `CC(=O)N1CC2CC1CN2c1ccc(CNc2ccc(OCc3ccc(C(F)(F)F)nc3)nn2)cc1` (centres unmarked) [Example 2.23], the IC50 was 3.9 nM.

Turning to `CC(=O)N1CC2(C1)CN(c1ccc(CNc3ccc(OCc4ccc(C(F)(F)F)nc4)nn3)c(F)c1)C2` [Example 2.21], the IC50 was found to be 2.4 nM.

Turning to `CC(=O)N1CCN(c2ccc(CNc3ccc(OCc4cnc(C(F)F)c(F)c4)nn3)cc2)CC1` [Example 2.12], the IC50 amounted to 3.5 nM.

For `CC(=O)N1CCC2(CC1)CN(c1ccc(CNc3ccc(OCc4ccc(C(F)(F)F)nc4)nn3)cc1)C2` [Example 2.22], the IC50 came to 6.2 nM.

As for `FC(F)c1ccc(COc2ccc(NCc3ccc(N4CCN(C5COC5)CC4)cc3)nn2)cn1` [Example 2.10], the IC50 was found to be 1.8 nM.

On to `CC(=O)N1C[C@@H]2CN(c3ccc(CNc4ccc(OCc5ccc(C(F)(F)F)nc5)nn4)cc3)C[C@@H]2C1` [Example 2.13], for which the IC50 was 4 nM.

As to `FC(F)(F)c1ccc(COc2ccc(NCc3ccc(N4CCN(C5COC5)CC4)cc3)nn2)cn1` [Example 2.8], the concentration for half-maximal inhibition (IC50) amounted to 2 nM.

Take `CC(=O)N1CCN(c2ccc(CNc3ccc(OCc4ccc(C(F)F)nc4)nn3)cc2)CC1` [Example 3, 1-[4-(4-{[(6-{[6-(Difluoromethyl)pyridin-3-yl]methoxy}pyridazin-3-yl)amino]methyl}-phenyl)piperazin-1-yl]ethan-1-one]: the IC50 was 2.9 nM.

Regarding `CC(=O)N1CCN(c2ccc(CNc3ccc(OCc4ccc(C(F)F)nc4)nn3)c(C(F)(F)F)c2)CC1` [Example 2.7], the IC50 is 1.9 nM.

Consider `CC(=O)N1CC2CCC(C1)N2c1ccc(CNc2ccc(OCc3ccc(C(F)(F)F)nc3)nn2)cc1` [Example 2.19], for which the IC50 is 2.4 nM.

Take `CC(=O)N1C[C@@H]2[C@H](C1)[C@H]1CN(c3ccc(CNc4ccc(OCc5ccc(C(F)(F)F)nc5)nn4)cc3)C[C@@H]21` [Example 5, 1-((3aR,3bS,6aR,6bS)-5-(4-(((6-((6-(trifluoromethyl)pyridin-3-yl)methoxy)pyridazin-3-yl)amino)methyl)phenyl)octahydrocyclobuta[1,2-c:3,4-c′]dipyrrol-2(1H)-yl)ethan-1-one]: the IC50 was determined as 7 nM.

`CC(=O)N1CCN(c2ccc(CNc3ccc(OCc4ccc(C(F)F)nc4)nn3)c(F)c2)CC1` [Example 1.4]: the concentration for half-maximal inhibition (IC50) is 3.3 nM.

As for `CC(=O)N1CC2(C1)CN(c1ccc(CNc3ccc(OCc4ccc(C(F)F)nc4)nn3)cc1)C2` [Example 1.2], the IC50 was determined as 2.9 nM.

`CC(=O)N1CC2CC1CN2c1ccc(CNc2ccc(OCc3ccc(C(F)F)nc3)nn2)cc1` (centres unmarked) [Example 2.6]: the IC50 turned out to be 1.8 nM.

In the case of `CC(=O)N1CC[C@@H]2CN(c3ccc(CNc4ccc(OCc5ccc(C(F)(F)F)nc5)nn4)cc3)C[C@@H]2CC1` [Example 4, 1-[(3aR,8aS)-2-(4-{[(6-{[6-(trifluoromethyl)pyridin-3-yl]methoxy}pyridazin-3-yl)amino]methyl}phenyl)-decahydropyrrolo[3,4-d]azepin-6-yl]ethan-1-one], the IC50 is 8.6 nM.

In the case of `CC(=O)N[C@H]1[C@@H]2CN(c3ccc(CNc4ccc(OCc5ccc(C(F)(F)F)nc5)nn4)cc3)C[C@@H]21` [Example 2.11], the IC50 came out at 3.8 nM.

As for `CC(=O)N1CC2(C1)CN(c1ccc(CNc3ccc(OCc4ccc(C(F)(F)F)nc4)nn3)cc1F)C2` [Example 2.9], the half-maximal inhibitory concentration (IC50) is 3.7 nM.

Regarding `CC(=O)N1CC2(C1)CN(c1ccc(CNc3ccc(OCc4ccc(C(F)(F)F)nc4)nn3)cc1)C2` [Example 1.1, 1-(6-(4-(((6-((6-(trifluoromethyl)pyridin-3-yl)methoxy)pyridazin-3-yl)amino)methyl)phenyl)-2,6-diazaspiro[3.3]heptan-2-yl)ethan-1-one], the half-inhibitory concentration (IC50) stood at 3.4 nM.

As for `CC(=O)N1C[C@@H]2CN(c3ccc(CNc4ccc(OCc5ccc(C(F)F)nc5)nn4)cc3)C[C@@H]2C1` [Example 2.14], the IC50 was 4.4 nM.

Turning to `CC(=O)N1CCN(c2ccc(CNc3ccc(OCc4ccc(C(F)F)nc4)nn3)cc2F)CC1` [Example 1.3], the half-maximal inhibitory concentration (IC50) is 1.5 nM.

For the molecule `CC(=O)N1CCC2(CC1)CN(c1ccc(CNc3ccc(OCc4ccc(C(F)F)nc4)nn3)cc1)C2` [Example 1.6], the IC50 was found to be 6.5 nM.

Consider `CC(=O)N1CCC2(CC1)CN(c1ccc(CNc3ccc(OCc4ccc(C(F)F)nc4)nn3)cn1)C2` [Example 2.18], for which the IC50 amounted to 9.2 nM.

Take `CC(=O)N1CCN(c2ccc(CNc3ccc(OCc4ccc(C(F)(F)F)nc4)nn3)nc2)CC1` [Example 2.15]: the IC50 came out at 2.2 nM.

Turning to `CC(=O)N(C)C1CCN(c2ccc(CNc3ccc(OCc4ccc(C(F)(F)F)nc4)nn3)cc2)CC1` [Example 2.1, N-methyl-N-[1-(4-{[(6-{[6-(trifluoromethyl)pyridin-3-yl]methoxy}pyridazin-3-yl)amino]methyl}phenyl)piperidin-4-yl]acetamide], the concentration for half-maximal inhibition (IC50) stood at 2.3 nM.

For the molecule `CC(=O)N1CC2CCC1CN2c1ccc(CNc2ccc(OCc3ccc(C(F)(F)F)nc3)nn2)cc1` (centres unmarked) [Example 2.20], the IC50 stood at 2.9 nM.

Another experiment concerns plasma LPA. As to the kind of experiment: Assay C: In Vivo (plasma LPA reduction after oral dosing). The note with it: rats, oral 5 mg/kg, plasma 8 hours post application vs baseline; sum of LPA 16:0, 18:0, 18:1, 18:2, 20:4. On the procedure:
The test substance was solubilized in 0.5% natrosol supplemented with 0.015% Tween 80 for oral application to rats at a dose of 5 mg/kg. Blood samples were collected before compound administration and 8 hours post application on ice using EDTA as coagulation agent. Subsequently, plasma was prepared by centrifugation and stored until analysis at −20° C.
LPAs from plasma samples were extracted by using the procedure described by Scherer et al. (Clinical chemistry 2009, 55, 1218-22). 35 μL of heparinized plasma was mixed with 200 μL 40 mM disodium hydrogen phosphate buffer containing 30 mM citric acid (pH 4) and 1 μM 17:0 LPA (internal standard). Subsequently, 500 μL butanol was added and shaken vigorously for 10 min. Samples were centrifuged afterwards at 4000 rpm, 4° C., for 10 min. 500 μL of the organic upper phase was transferred to a fresh 96-deep-well plate and evaporated with a gentle nitrogen flow of 15 psi for 45 min. The resultant residual was dissolved in 100 μL ethanol prior to LC-MS analysis.
A Triple Quad 6500 (ABSciex, Toronto, Canada) was equipped with an Agilent 1290 LC system (Agilent, Santa Clara, CA) a CTC autosampler and an Atlantis 50×2.1-mm, 3-μm HILIC LC column (Waters, Elstree, UK). Eluent A contained 0.2% formic acid and 50 mM ammonium formate in water, whereas eluent B consisted of 0.2% formic acid in acetonitrile. […] At 1.8 min, solvent B was set back to 95% and stayed constant for 0.7 min for re-equilibration of the column. The following LPA species were monitored (DP: declustering potential and CE: collision energy): 16:0 LPA at 409.2/152.8, DP=−150, CE=−28; 18:0 LPA at 437.3/152.8, DP=−60, CE=−28; 18:1 LPA at 435.2/152.8, DP=−40, CE=−28; 18:2 LPA at 433.2/152.8, DP=−150, CE=−28; 20:4 LPA at 457.2/152.8, DP=−100, CE=−29 and 17:0 LPA at 423.5/152.8, DP=−100, CE=−36. LPA depletion in percent was calculated based on the baseline LPA levels before test compound application. The sum of LPA refers to the species 16:0; 18:0; 18:1; 18:2 and 20:4
In the case of `CC(=O)N1CCN(c2ccc(CNc3ccc(OCc4ccc(C(F)(F)F)nc4)nn3)cn2)CC1` [Example 2.5], the “LPA reduction at 8 h” value came to 95.9%.

For `CC(=O)N1CCN(c2ccc(CNc3ccc(OCc4ccc(C(F)(F)F)nc4)nn3)cc2)CC1` [Example 2.2], the “LPA reduction at 8 h” value is recorded as 94.1%.

For `O=C(NC[C@@H]1[C@H]2CN(C(=O)OCc3cc(C(F)(F)F)cc(C(F)(F)F)c3)C[C@@H]12)c1ccc2[nH]nnc2c1` [reference compound], the “LPA reduction at 8 h” value is listed as 40.7%.

In the case of `CCc1nc2c(C)cc(N3CCN(CC(=O)N4CC(O)C4)CC3)cn2c1N(C)c1nc(-c2ccc(F)cc2)c(C#N)s1` [Example 2 in WO2014/139882, reference compound], the “LPA reduction at 8 h” value is 58.1%.

As to `CC(=O)N1CCN(c2ccc(CNc3ccc(OCc4cnc(C(F)F)c(F)c4)nn3)cc2)CC1` [Example 2.12], the “LPA reduction at 8 h” value was determined as 94.6%.

As for `CC(=O)N1CCN(c2ccc(CNc3ccc(OCc4ccc(C(F)F)nc4)nn3)cc2)CC1` [Example 3, 1-[4-(4-{[(6-{[6-(Difluoromethyl)pyridin-3-yl]methoxy}pyridazin-3-yl)amino]methyl}-phenyl)piperazin-1-yl]ethan-1-one], the “LPA reduction at 8 h” value came out at 99.9%.

For `CC(=O)N1CC2(C1)CN(c1ccc(CNc3ccc(OCc4ccc(C(F)F)nc4)nn3)cc1)C2` [Example 1.2], the “LPA reduction at 8 h” value is 96.7%.

On to `CC(=O)N1CC2(C1)CN(c1ccc(CNc3ccc(OCc4ccc(C(F)(F)F)nc4)nn3)cc1)C2` [Example 1.1, 1-(6-(4-(((6-((6-(trifluoromethyl)pyridin-3-yl)methoxy)pyridazin-3-yl)amino)methyl)phenyl)-2,6-diazaspiro[3.3]heptan-2-yl)ethan-1-one], for which the “LPA reduction at 8 h” value came out at 96.5%.

The values above are taken from patent US20260001863A1, “NOVEL PYRIDAZINES” (Boehringer Ingelheim International GmbH, priority 2019, published 2026).
